Results reported in patent US20250138013A1, “SMALL MOLECULE INHIBITOR TARGETING A LEUKEMIC STEM CELL ASSOCIATED GENE FOR HIGH-RISK AML PATIENTS” (The Chinese University of Hong Kong, priority 2023, published 2025).
Entries after “also recorded” stand apart in the source; their conditions may differ.

What was measured:
KG1a cells = assay: Cell Titer-GLO cell viability assay, KG1a; format: cell-based
Method: (§1) The SMI is initially tested with increasing doses for its effect upon cell viability in KG1a cells. […] This dose is then tested on GDM1, MOLM13 and OCIAML3 cells.
(§2) Cells are treated with the SMIs and control (DMSO) for 72 hours and their viability is detected using the Cell Titer Glo® assay according to the manufacturer's instructions. Statistical analysis is performed using one-way ANOVA with Tukey's multiple comparisons test with Mean+SD of at least 2 independent experiments.
(§3) Cells are seeded into 96-well plates at a density of approximately 2×10^5 cells/ml and drugs are added at indicated concentrations. Cell viability is measured at indicated time points using Cell Titer-GLO® Luminescent Cell Viability Assay. For assessment of gene expression after drug treatment, cells are seeded in 6-well plates at approximately 4×10^5 cells/ml and drugs are added at indicated doses. RNA and/or protein is extracted 72 hours later. qPCR and Western Blot are then performed according to standard procedures to detect target gene and protein expression.

GDM1 cells = assay: Cell Titer-GLO cell viability assay, GDM1; format: cell-based; conditions: GDM1 (SPINK2high), 150 μM for 72 hours
Method: as §1, §2, §3

[1] = system: SPINK2^high cells (KG1a and GDM1) vs. SPINK2^low cells (OCIAML3 and MOLM13); assay: Cytotoxicity compared between SPINK2high and SPINK2low cell lines (Cell Titer Glo); format: cell-based; conditions: 72 h treatment, compared with SMI-2
Method: as §2, §3

[2] = system: SPINK2 protein expression in KG1a cells; assay: Western blot of SPINK2 protein after SMI treatment, KG1a; format: cell-based
Method: as §1
(§4) Cells are harvested, washed in Phosphate-buffered saline (PBS) and lysed using Pierce™ IP Lysis Buffer. Protein concentration is measured using Pierce™ BCA Protein Assay Kit. Approximately 30 μg of whole cell lysates are mixed with 4× Laemmli Buffer and β-mercaptoethanol and denatured for 5 minutes at 95° C. Lysates are equally loaded onto and separated using freshly prepared polyacrylamide gels. Proteins are transferred onto 0.2 μm Immun-Blot® PVDF membranes using FLASHBlot transfer buffer. The membranes are then blocked for one hour at room temperature with 5% non-fat dry milk in TBS Tween™ 20 Buffer. This is followed by incubation with primary antibodies diluted in 5% bovine serum albumin (BSA) at 4° C. overnight. Primary antibody dilutions are as follows: SPINK2 (1:1000), ALCAM (1:10000), β-ACTIN (1:10000), GAPDH (1:2500). […]
(§5) Cells are seeded into 96-well plates at a density of approximately 2×10^5 cells/ml and drugs are added at indicated concentrations. Cell viability is measured at indicated time points using Cell Titer-GLO® Luminescent Cell Viability Assay. […]

[3] = system: SPINK2 protein expression in GDM1 cells; assay: Western blot of SPINK2 protein after SMI treatment, GDM1; format: cell-based
Method: as §1, §4, §5

[4] = system: SLC7A11 mRNA expression in KG1a cells; assay: qPCR of SPINK2 target gene SLC7A11 after SMI treatment, KG1a; format: cell-based
Method: as §1, §3

[5] = system: STEAP3 mRNA expression in KG1a cells; assay: qPCR of SPINK2 target gene STEAP3 after SMI treatment, KG1a; format: cell-based
Method: as §1, §3

[6] = Solubility in DMSO and other solvents; format: physicochemical
Source text: In another embodiment, the SMI is screened via a structure-based virtual screening (SBVS) and selected from a group of bioactive molecules due to its efficient binding affinity based on its idock scores and its capacity to dissolve in at least one solvent selected from a group comprising of dimethyl sulfoxide (DMSO), water, ethanol or dimethylformamide (DMF).
To identify potential SPINK2-SMIs, Structure-based Virtual Screening (SBVS) is initially employed for in silico screening of a small-molecule library comprising 1.5 million compounds to identify bioactive molecules that bind to the targeting domain of SPINK2 (FIG. 16A).

[7] = system: SLC7A11 mRNA expression in MOLM13-EV and MOLM13-SPINK2 cells; assay: qPCR of SLC7A11 after Nutlin-3a in MOLM13-EV and MOLM13-SPINK2 cells; format: cell-based; conditions: Nutlin-3a 1 μM, 48 hours and 72 hours
Method: Previously, p53 transcriptionally represses SLC7A11 expression, thereby playing an important pro-ferroptotic role. The data has shown that p53 pathway genes are inversely affected upon SPINK2 modulation (Tables S11 & S12). Based on the hypothesis that SPINK2 overexpression in MOLM13 cells might counteract the p53-mediated repression of SLC7A11, MOLM13-EV and MOLM13-SPINK2 cells are treated with the p53 activator, Nutlin-3a (1 μM), for 48 hours and 72 hours. […] Of note, the effects of Nutlin-3a could not be tested in KG1a cells, since they have a TP53 mutation which renders them insensitive to Nutlin-3a activity.
GFP-labelled lentiviruses are used for assessing the biological significance of SPINK2 in AML by overexpressing SPINK2 in OCIAML3 and MOLM13 cells (pRSC—SFFV-SPINK2-E2A-Puro-E2A-GFP-Wpre) and empty vector, EV (pRSC—SFFV-Puro-E2A-GFP-wpre) are provided. Transduction is performed in approximately 2×10^5 cells/ml at a multiplicity of infection (MOI) of 20 using Retronectin®-coated 6-well plates according to the manufacturer's instructions (Takara Bio Inc.) This is followed by puromycin selection (1 μg/ml) for at least seven days. Functional studies are then performed on cells as described and extra cells are cryopreserved.

solubility in DMSO [6]	SMILES	cytotoxicity at 150 µM (KG1a cells; Homo sapiens, KG-1a, KG1a cells, 150 μM, 72nd hour, read-out: reduction of cell viability)	effect on cell viability (KG1a cells; KG1a (SPINK2high), 150 μM for 72 hours)	effect on cell viability (GDM1 cells)	toxicity/specificity against SPINK2high vs SPINK2low cells [1]	toxicity/specificity against SPINK2high vs SPINK2low cells ([1]; listed as SMI-5)	SPINK2 protein expression [2]	SPINK2 protein expression [3]	SLC7A11 mRNA expression [4]	STEAP3 mRNA expression [5]	SLC7A11 mRNA expression [7]
soluble in DMSO	C[C@]12C(=O)N(c3cccc(C(=O)O)c3)C(=O)[C@H]1C1c3ccccc3C2c2ccccc21 [SMI, 3-[(15R,19S)-15-methyl-16,18-dioxo-17-azapentacyclo [6.6.5.02,7.09, 14.015,19]nonadeca-2,4,6,9,11,13-hexaen-17-yl]benzoic acid]	~50%	significantly decreased cell viability	significantly decreased cell viability	selectively decreased viability	greater toxicity; also recorded: greater specificity	decreased	decreased	downregulation	upregulation	–
–	COc1ccc(C2=N[C@@H](c3ccc(Cl)cc3)[C@@H](c3ccc(Cl)cc3)N2C(=O)N2CCNC(=O)C2)c(OC(C)C)c1 [Nutlin-3a]	–	–	–	–	–	–	–	–	–	reduced in MOLM13-EV cells to a significantly greater extent than in MOLM13-SPINK2 cells
